Reference: ChEMBL document CHEMBL1201862, “PubChem BioAssay data set” (2004)
Activity calls are given as the source filed them.

How the values were obtained:
[1] = target: Potassium voltage-gated channel subfamily KQT member 2 (Rattus norvegicus, UniProt O88943); experiment: KCNQ2 potassium channel inhibitors, dose response, cell-based, automated electrophysiology, set II, rat KCNQ2 (AID 588637); assay type: functional
[2] = target: T1, Mitochondrial peptide methionine sulfoxide reductase (Bos taurus, UniProt P54149); assay type: functional;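 further: absorbance read-out, biochemical high-throughput dose-response screen for MsrA inhibitors, confirmatory; recombinant bovine MsrA coupled to E. coli TrxB with NADPH and selenocystamine; potency is for inhibitors of MsrA activity on DMSO substrate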
T1 sequence (P54149 whole entry): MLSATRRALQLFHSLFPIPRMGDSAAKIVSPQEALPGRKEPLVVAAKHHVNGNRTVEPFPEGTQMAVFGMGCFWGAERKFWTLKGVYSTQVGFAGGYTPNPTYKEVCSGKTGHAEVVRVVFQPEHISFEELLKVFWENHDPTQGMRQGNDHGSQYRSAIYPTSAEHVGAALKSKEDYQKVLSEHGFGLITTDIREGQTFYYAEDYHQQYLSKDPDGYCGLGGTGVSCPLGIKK

[3] = target: Testis-specific serine/threonine-protein kinase 2 (Homo sapiens, UniProt Q96PF2); assay type: functional;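 further: part of the Navigating the Kinome panel, target entry STK22B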
Sequence of Testis-specific serine/threonine-protein kinase 2 (Q96PF2 whole entry): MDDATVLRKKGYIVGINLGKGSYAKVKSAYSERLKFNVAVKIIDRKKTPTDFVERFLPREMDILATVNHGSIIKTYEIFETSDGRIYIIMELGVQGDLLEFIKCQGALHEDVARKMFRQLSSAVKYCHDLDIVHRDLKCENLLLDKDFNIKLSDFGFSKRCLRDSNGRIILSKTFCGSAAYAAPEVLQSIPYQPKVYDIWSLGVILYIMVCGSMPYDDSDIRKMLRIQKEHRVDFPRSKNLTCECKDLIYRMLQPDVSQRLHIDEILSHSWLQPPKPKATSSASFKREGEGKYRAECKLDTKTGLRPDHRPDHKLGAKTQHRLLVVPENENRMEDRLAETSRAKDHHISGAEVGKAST

[4] = nonselective inhibitors of cellular cAMP signaling, dose response, counter-screen for MC4R biased antagonist project, cell-based, TR-FRET cAMP detection (AID 602305); assay type: functional;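 further: U2OS cells stimulated with forskolin near its EC80 as the cAMP inducer; potency is for inhibition of forskolin-stimulated cAMP signaling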
Melanocortin receptor 4 [5] = target: T2, Melanocortin receptor 4 (Homo sapiens, UniProt P32245); experiment: MC4R antagonist potency on cAMP, dose response, cell-based, TR-FRET, biased antagonists (AID 602298); assay type: functional;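 further: antagonist potency against agonist-stimulated cAMP production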
T2 sequence (P32245 whole entry): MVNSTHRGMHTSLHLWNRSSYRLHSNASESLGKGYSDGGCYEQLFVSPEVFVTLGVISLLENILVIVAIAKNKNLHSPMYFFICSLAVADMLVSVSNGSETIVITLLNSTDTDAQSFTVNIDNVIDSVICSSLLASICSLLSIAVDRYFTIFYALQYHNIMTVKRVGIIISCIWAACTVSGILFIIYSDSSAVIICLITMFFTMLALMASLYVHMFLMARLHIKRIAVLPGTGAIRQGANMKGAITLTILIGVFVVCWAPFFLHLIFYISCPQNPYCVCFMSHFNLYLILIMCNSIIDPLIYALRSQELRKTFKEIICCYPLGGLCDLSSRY

Protein Wnt-3a = Protein Wnt-3a (Mus musculus, UniProt P27467); experiment: Wnt3a-driven reporter signaling inhibition, dose response, selectivity assay for Gli-SUFU antagonist project, Wnt-LIGHT cells, luminescence (AID 651570); assay type: functional; conditions: read-out: IC50_Mean;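 further: Wnt-LIGHT reporter cells stimulated with conditioned medium from Wnt3a-producing cells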
Sequence of Protein Wnt-3a (P27467 whole entry): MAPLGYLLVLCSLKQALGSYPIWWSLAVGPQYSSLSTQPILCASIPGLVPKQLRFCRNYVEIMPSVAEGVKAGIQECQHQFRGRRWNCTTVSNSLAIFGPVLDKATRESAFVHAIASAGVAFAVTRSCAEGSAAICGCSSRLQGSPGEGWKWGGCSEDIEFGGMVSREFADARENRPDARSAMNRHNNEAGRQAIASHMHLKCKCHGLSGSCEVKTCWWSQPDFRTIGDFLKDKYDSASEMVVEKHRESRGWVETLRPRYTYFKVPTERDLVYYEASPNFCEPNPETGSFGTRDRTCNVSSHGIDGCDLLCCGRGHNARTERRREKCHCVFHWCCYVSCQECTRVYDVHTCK

[6] = target: T3, DNA dC->dU-editing enzyme APOBEC-3A (Homo sapiens, UniProt P31941); experiment: SAR analysis of small molecule inhibitors of APOBEC3A DNA Deaminase via a fluorescence-based single-stranded DNA deaminase assay - Set 2.; assay type: functional; conditions: read-out: IC50_Mean
T3 sequence (P31941 whole entry): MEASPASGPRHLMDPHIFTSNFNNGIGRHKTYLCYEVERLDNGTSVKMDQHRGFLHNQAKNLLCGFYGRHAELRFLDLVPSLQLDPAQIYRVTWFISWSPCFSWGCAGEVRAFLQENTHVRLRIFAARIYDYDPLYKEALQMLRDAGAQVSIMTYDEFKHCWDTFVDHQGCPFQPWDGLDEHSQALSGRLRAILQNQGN

[7] = target: T3, DNA dC->dU-editing enzyme APOBEC-3A; experiment: Dose Response confirmation of small molecule APOBEC3A DNA Deaminase Inhibitors via a fluorescence-based single-stranded DNA deaminase assay. [Related pubchem assays (depositor defined):AID493011, AID493024]; assay type: functional
[8] = target: T4, DNA dC->dU-editing enzyme APOBEC-3G (Homo sapiens, UniProt Q9HC16); assay type: functional
T4 sequence (Q9HC16 whole entry): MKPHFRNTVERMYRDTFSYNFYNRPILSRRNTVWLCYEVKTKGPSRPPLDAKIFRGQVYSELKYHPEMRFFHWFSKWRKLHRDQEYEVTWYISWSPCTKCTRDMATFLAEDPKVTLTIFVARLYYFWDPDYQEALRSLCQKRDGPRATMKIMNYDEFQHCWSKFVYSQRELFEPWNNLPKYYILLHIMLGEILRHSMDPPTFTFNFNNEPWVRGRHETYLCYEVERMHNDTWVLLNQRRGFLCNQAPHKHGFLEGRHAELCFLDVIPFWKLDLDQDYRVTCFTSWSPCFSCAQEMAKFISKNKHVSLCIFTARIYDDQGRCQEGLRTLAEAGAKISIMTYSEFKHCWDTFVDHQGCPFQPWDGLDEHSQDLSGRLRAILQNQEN

[9] = target: T3, DNA dC->dU-editing enzyme APOBEC-3A; experiment: SAR analysis of small molecule inhibitors of APOBEC3A DNA Deaminase via a fluorescence-based single-stranded DNA deaminase assay.; assay type: functional; conditions: read-out: IC50_Mean
[10] = target: T4, DNA dC->dU-editing enzyme APOBEC-3G; experiment: SAR analysis of small molecule inhibitors of APOBEC3G DNA Deaminase via a fluorescence-based single-stranded DNA deaminase assay - Set 2.; assay type: functional; conditions: read-out: IC50_Mean
[11] = target: T4, DNA dC->dU-editing enzyme APOBEC-3G; experiment: APOBEC3G deaminase inhibitors, SAR follow-up, biochemical, fluorescence, single-stranded DNA substrate (AID 602136); assay type: functional; conditions: read-out: IC50_Mean
[12] = ARNT/TACC3 interaction disruptors, potency, confirmation, biochemical, AlphaScreen, cherry-picked samples (AID 651703); assay type: functional, Homo sapiens;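 further: His-tagged ARNT PAS-B domain paired with GST-TACC3 E629A dimer coactivator fragment; potency of inhibitors that break up the complex and lower AlphaScreen signal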
Prothrombin = Prothrombin (Bos taurus, UniProt P00735); experiment: thrombin inhibition, dose response, biochemical, fluorescence polarization, uHTS hits (AID 602369); assay type: functional
[13] = target: 26S proteasome non-ATPase regulatory subunit 14 (Homo sapiens, UniProt O00487); experiment: inhibition of proteasome subunit RPN11 – biochemical, fluorescence polarization, uHTS hits, confirmation (AID 602368); assay type: functional
Sequence of 26S proteasome non-ATPase regulatory subunit 14 (O00487 whole entry): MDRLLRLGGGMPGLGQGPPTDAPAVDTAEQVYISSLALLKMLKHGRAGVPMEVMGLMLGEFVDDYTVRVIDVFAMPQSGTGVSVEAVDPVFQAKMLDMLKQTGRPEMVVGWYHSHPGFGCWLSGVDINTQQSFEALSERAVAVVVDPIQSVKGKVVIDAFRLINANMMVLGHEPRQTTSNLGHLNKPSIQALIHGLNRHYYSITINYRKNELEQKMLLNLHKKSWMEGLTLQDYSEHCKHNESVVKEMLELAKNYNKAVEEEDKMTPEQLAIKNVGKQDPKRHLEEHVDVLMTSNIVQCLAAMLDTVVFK

[14] = system: Streptococcus sp. 'group A'; experiment: growth inhibition of control SK(-) GAS strain, dose response, counter-screen for streptokinase expression inhibitor project, luminescence, kanamycin, BacTiterGlo, confirmation (AID 1900); assay type: functional, organism-based
Streptococcus = experiment: Group A Streptococcus viability loss, dose response, counter-screen for streptokinase expression inhibitor project, luminescence, BacTiterGlo (AID 1915); assay type: functional, organism-based;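 further: potency for reduction of bacterial viability or growth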
[15] = target: 72 kDa type IV collagenase (Homo sapiens, UniProt P08253); experiment: Dose Response validation of uHTS RPN11 inhibitor hits using a MMP-2 Fluorescence assay.; assay type: functional
Sequence of 72 kDa type IV collagenase (P08253 whole entry): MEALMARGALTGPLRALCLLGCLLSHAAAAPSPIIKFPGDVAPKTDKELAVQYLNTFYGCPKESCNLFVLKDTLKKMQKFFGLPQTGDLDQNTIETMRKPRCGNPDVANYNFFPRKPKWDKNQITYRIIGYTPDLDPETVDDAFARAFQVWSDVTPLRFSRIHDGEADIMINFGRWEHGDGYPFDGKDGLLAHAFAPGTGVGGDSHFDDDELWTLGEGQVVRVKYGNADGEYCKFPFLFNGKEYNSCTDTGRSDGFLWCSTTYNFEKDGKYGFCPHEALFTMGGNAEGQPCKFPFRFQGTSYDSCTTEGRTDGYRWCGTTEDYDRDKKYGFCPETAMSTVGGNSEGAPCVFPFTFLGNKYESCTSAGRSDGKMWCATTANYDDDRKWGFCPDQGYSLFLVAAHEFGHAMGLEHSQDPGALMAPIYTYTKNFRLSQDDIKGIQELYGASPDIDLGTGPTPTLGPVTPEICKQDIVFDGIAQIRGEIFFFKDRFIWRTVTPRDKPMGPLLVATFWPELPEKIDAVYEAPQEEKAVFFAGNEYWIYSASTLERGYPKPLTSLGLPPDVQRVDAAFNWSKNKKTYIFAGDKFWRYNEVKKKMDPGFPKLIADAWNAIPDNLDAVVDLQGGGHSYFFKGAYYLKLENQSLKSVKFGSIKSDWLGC

[16] = target: T5, Apoptotic protease-activating factor 1 (Homo sapiens, UniProt O14727); experiment: SAR analysis of small molecule Activators of Apaf-1 in a Fluorescent assay.; assay type: functional; conditions: read-out: EC50_Mean;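 further: caspase-3 cleavage of fluorogenic Rh110 DEVD substrate downstream of apoptosome activation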
T5 sequence (O14727 whole entry): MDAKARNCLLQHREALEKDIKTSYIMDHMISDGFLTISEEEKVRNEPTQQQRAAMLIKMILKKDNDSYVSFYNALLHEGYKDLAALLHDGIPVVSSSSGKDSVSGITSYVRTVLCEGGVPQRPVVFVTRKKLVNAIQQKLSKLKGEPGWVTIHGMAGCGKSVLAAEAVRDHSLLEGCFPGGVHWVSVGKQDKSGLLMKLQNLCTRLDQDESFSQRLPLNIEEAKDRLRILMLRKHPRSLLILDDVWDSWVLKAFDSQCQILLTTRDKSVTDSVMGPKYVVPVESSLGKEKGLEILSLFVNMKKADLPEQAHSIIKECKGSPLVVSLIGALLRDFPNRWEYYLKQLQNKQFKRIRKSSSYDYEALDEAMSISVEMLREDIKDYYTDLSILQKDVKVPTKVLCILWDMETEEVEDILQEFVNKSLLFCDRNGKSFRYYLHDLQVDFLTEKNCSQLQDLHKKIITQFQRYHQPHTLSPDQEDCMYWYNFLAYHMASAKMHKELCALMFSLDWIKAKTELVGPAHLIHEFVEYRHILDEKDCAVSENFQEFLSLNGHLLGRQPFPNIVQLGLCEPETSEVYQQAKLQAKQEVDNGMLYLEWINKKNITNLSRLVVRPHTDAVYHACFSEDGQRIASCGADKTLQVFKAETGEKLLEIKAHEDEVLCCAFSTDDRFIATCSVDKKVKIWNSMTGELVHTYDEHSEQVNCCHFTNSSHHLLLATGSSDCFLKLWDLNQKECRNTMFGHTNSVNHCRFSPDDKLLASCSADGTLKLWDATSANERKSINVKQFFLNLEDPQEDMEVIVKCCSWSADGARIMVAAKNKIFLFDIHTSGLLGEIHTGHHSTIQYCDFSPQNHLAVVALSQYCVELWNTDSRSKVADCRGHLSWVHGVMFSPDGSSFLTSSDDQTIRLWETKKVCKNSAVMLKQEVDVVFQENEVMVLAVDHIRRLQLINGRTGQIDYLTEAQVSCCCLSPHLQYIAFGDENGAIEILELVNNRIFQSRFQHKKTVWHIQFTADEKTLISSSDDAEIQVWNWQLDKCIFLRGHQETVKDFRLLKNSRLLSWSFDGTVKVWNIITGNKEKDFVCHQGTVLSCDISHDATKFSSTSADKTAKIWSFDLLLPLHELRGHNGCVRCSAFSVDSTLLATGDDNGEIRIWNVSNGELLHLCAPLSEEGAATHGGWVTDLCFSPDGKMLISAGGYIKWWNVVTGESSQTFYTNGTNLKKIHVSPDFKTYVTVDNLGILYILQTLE

[17] = target: Ras and Rab interactor 1/Tyrosine-protein kinase ABL1 (Homo sapiens, UniProt P00519+Q13671); assay type: functional;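 further: biochemical TR-FRET dose-response test measuring inhibition of binding between Rin1 and Abl proteins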
[18] = microbe, parasite or virus in culture; assay type: functional; conditions: Mycobacterium tuberculosis
Melanocortin receptor 4 [19] = target: T2, Melanocortin receptor 4; assay type: functional, cell-based
Beta Lactamase = Beta Lactamase (Pseudomonas aeruginosa, UniProt Q932Y6); experiment: beta-lactamase reporter inhibitor potency, dose response, artefact control for TLR9-MyD88 binding inhibitor project, BLA reporter cells, FRET fluorescence (AID 588341); assay type: cell-based;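 further: cell based assay in CHO-K1 cells stably expressing beta-lactamase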
Sequence of Beta Lactamase (Q932Y6 whole entry, the tested form may be a part): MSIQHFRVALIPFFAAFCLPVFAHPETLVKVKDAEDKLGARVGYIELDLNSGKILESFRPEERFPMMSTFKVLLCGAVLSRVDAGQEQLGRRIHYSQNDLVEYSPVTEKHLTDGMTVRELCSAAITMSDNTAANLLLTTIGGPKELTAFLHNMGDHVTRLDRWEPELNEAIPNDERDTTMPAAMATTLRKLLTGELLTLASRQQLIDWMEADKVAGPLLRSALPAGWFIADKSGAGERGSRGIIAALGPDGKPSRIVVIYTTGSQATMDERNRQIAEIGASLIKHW

CHO = experiment: cytotoxicity in TLR9-MyD88 CHO cells, dose response, cytotoxicity control for TLR9-MyD88 binding inhibitor project, cell-based, luminescence (AID 588339); assay type: functional, hamster; conditions: Cricetulus griseus;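 further: CHO cells stably coexpressing TLR9 and MyD88 fusions from primary screen; compound exposure lasted 48 hours before viability readout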

Sequence of Potassium voltage-gated channel subfamily KQT member 2 (O88943 whole entry): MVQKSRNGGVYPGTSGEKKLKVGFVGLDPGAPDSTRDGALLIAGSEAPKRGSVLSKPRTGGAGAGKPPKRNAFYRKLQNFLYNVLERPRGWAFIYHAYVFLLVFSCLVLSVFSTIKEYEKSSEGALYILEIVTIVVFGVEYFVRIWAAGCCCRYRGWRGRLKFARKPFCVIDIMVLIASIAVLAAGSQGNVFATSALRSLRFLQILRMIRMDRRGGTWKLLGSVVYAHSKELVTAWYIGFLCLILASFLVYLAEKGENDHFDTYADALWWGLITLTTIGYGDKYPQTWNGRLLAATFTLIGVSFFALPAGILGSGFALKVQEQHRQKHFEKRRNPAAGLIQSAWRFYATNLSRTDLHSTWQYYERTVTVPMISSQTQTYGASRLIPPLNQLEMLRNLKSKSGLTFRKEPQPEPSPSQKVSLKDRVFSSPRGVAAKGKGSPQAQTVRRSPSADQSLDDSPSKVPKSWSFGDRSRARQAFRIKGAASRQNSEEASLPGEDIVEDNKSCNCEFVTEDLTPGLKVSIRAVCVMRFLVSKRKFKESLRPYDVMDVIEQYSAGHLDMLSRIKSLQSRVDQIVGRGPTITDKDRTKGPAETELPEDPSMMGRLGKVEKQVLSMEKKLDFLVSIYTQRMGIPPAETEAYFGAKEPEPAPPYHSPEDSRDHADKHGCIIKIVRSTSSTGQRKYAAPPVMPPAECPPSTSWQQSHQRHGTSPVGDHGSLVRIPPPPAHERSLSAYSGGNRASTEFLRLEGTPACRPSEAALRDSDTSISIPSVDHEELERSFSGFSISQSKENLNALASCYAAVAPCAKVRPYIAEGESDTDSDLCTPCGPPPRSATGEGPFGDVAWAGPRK

## O=C(CSc1nc2ccccc2c(=O)n1NC(=O)c1ccccc1)c1ccccc1
[1]
  IC50: 0.513 µM (active)

## O=C(O)c1ccc(NS(=O)(=O)c2ccc3c(c2)C(=O)c2ccccc2C3=O)cc1
[2]
  IC50: 91.2 µM (inactive)

## CC1CCN(C(=O)CC#N)CC1N(C)c1ncnc2[nH]ccc12 (stereo unspecified)
[3]
  Ki: > 1.58 µM (inactive)

## CCc1nc2ccc(C(=O)NCc3ccc4c(c3)OCO4)cn2c1N(CCC(C)C)CCN(C)C
[4]
  IC50: > 64.6 µM (inactive)
Melanocortin receptor 4 [5]
  IC50: 11.5 µM (inactive)

## COc1ccc(/C=N/Nc2cc(C)nc(NS(=O)(=O)c3ccc(C)cc3)n2)cc1
[4]
  IC50: > 64.6 µM (inactive)
Melanocortin receptor 4 [5]
  IC50: > 64.6 µM (inactive)

## COc1ccc(NS(=O)(=O)c2ccc(N3CCN(CCO)CC3)c([N+](=O)[O-])c2)cc1
Protein Wnt-3a
  IC50: 0.83 µM (active)

## CC(C)(C)NC(=O)CSc1nc2ccc(NC(=O)CSc3nnc(N)s3)cc2s1
[6]
  IC50: > 99 µM (inactive)
[7]
  IC50: 3.87 µM (active)
[8]
  IC50: 18.4 µM (active)
[9]
  IC50: 17.1 µM (inactive)
[10]
  IC50: 1.54 µM (active)
[11]
  IC50: 6.68 µM (active)

## CC1CCCC(C)N1C(=O)COC(=O)c1ccc([N+](=O)[O-])o1 (stereo unspecified)
[12]
  AC50: 95.7 µM (active)

## CC(C)c1ccc(N2C(=O)/C(=C/NNC(=O)c3ccccc3O)C(=O)NC2=S)cc1
Prothrombin
  IC50: 48.4 µM (active)
[13]
  IC50: 52.9 µM (active)
[14]
  EC50: 7.63 µM (active)
Streptococcus
  EC50: 7.21 µM (active)
[15]
  IC50: 45.2 µM (active)

## O=C1CC2(CC(c3ccccc3Cl)=NO2)C(=O)N1c1ccc2ccccc2c1 (stereo unspecified)
[16]
  EC50: > 100 µM (inactive)

## Cn1c(=O)[nH]c(=O)c2c1nc(NCc1ccco1)n2Cc1ccccc1Cl
[17]
  IC50: > 73.4 µM (inactive)

## COC(=O)c1c(NC(=O)CC2SC(N)=NC2=O)sc2c1CCC(C(C)(C)C)C2 (stereo unspecified)
[18]
  CC50: > 40 µM (active)
Melanocortin receptor 4 [19]
  EC50: > 89.2 µM (inactive)

## O=C(NCc1ccco1)c1cccc2c1C(=O)c1ccc(N3CCC(Cc4ccccc4)CC3)cc1S2(=O)=O
Beta Lactamase
  IC50: 4.4 µM (active)
CHO
  IC50: > 49.8 µM (inactive)
